Assay results as given in patent US10830683B2, “Method for measuring coagulation of blood samples using viscoelastic tests (VET)” (CA Casyso GmbH, priority 2012, dated 2020).

Test system: citrated whole blood
Experiment: ROTEM (NATEM) of recalcified citrated whole blood with added bead suspension or supernatant
Assay type: cell-based, human
Conditions: cell-coated beads preincubated with TNFα 10 ng/ml for 12-16 h; compared with unstimulated cells
Method: To seed endothelial cells on microbeads, an approximate cell count of 400 OEC or HUVEC per bead was mixed with Cytodex 3 (collagen-coated) dextran microcarrier beads (GE Healthcare Bio-Sciences AB, Uppsala, Sweden) in 1 ml of EGM-2 medium. Beads and cells were incubated at 37° C. and 5% CO2 for 4 h and shaken gently every 20 min. After transferring the suspension to a 25-cm^2 tissue culture flask (Greiner Bio-One, Linz, Austria), microbeads were optionally incubated with TNFα (Sigma Aldrich, Vienna) at a final concentration of 10 ng/ml for 12-16 h at 37° C. and 5% CO2 in 4 ml of EGM-2 to simulate an inflammatory situation. To assess the influence of collagen, data from bare, collagen-coated Cytodex 3 were compared with uncoated Cytodex 1 (GE Healthcare Bio-Sciences AB, Uppsala, Sweden) beads in an identical setting.
Coated Beads and overnight-conditioned cell culture supernatant were gently taken up with a 10 ml serological pipette and transferred to a 15 ml Falcon tube. Once beads descended, the supernatant was carefully transferred to 1.5 ml tubes and centrifuged at 1,500×g for 20 minutes. […]
The following ROTEM parameters were calculated from the signal and included in the statistical analysis: Clotting time (CT, sec), latency until the clot reaches a firmness of 2 mm; measure for initial thrombin and fibrin formation. […]

Substance: TNFα
- Clotting time (CT) after prior activation of cells: significant further shortening of CT
